Assay: recombinant UMI read abundance after kanamycin selection (control-corrected) (log10(CPM+1)); higher = more efficient recombination; extreme values may be limits of the assay; sequences stand for … in AGTGCAGAGAAAATCGGCCAGTTTTCTCTGCCTGCAGTCCGCATGCCGTGGGACCCCTTGGGTTCTAACCTGTTGCCTAGATTTATGCAGCGGACTGCCTTTCTCCCAAAGTGATAAACCGG…AGGTTGGTTTCACT; site = the 11-nt donor
Method in brief: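 For the IS621 bridge recombinase, a pooled Escherichia coli screen tested donor and donor-binding-loop pairs. Cells received the pair library together with a target plasmid encoding a fixed target and T7-inducible recombinase, then went onto IPTG (0.07 mM) plus kanamycin or unselected plates in duplicate. After PCR across the donor–target junction and sequencing, recombinant UMI counts were normalized to CPM, averaged, and scaled by control-derived factors. Each value is given as log10(CPM+1).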
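Also: IS621 bridge recombinase in Escherichia coli cells against a fixed T5 target plasmid.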

Sequence | recombinant UMI read abundance (log10)
ATATGGCCATGGACCGGTTTTCCCGGTAATCCGTATTTGAC (site ATATGGCCTGT) | 0
ATATTCGCATGGACCGGTTTTCCCGGTAATCCGTATTTGCT (site ATATTCGCTAG) | 2.58
ATCAAAGCATGGACCGGTTTTCCCGGTAATCCGTATTTGAG (site ATCAAAGCTCT) | 2.17
ATCAAAGCATGGACCGGTTTTCCCGGTAATCCGTATTTGAG (site ATCCAAGCTCT) | 0.889
ATCAAAGCATGGACCGGTTTTCCCGGTAATCCGTATTTGAG (site ATCGAAGCTCT) | 0.781
ATCAAAGCATGGACCGGTTTTCCCGGTAATCCGTATTTGAG (site ATCTAAGCTCT) | 0.855
ATCACATCATGGACCGGTTTTCCCGGTAATCCGTATTTGCG (site ATCACATCTCG) | 2.31
ATCAGACCATGGACCGGTTTTCCCGGTAATCCGTATTTGCA (site ATCAGACCTTG) | 0
ATCAGGCCATGGACCGGTTTTCCCGGTAATCCGTATTTGAC (site ATAAGGCCTGT) | 0
ATCAGGCCATGGACCGGTTTTCCCGGTAATCCGTATTTGAC (site ATCAGGCCTGT) | 0
ATCAGGCCATGGACCGGTTTTCCCGGTAATCCGTATTTGAC (site ATGAGGCCTGT) | 0
ATCAGGCCATGGACCGGTTTTCCCGGTAATCCGTATTTGAC (site ATTAGGCCTGT) | 0
ATCAGGCCATGGACCGGTTTTCCCGGTAATCCGTATTTGAG (site ATCAGGCCTCT) | 0
ATCATGCCATGGACCGGTTTTCCCGGTAATCCGTATTTGCC (site ATCATGCCTGG) | 0
ATCATTGCATGGACCGGTTTTCCCGGTAATCCGTATTTGAC (site ATCATTGCTGT) | 1.48
ATCATTTCATGGACCGGTTTTCCCGGTAATCCGTATTTGCA (site ATCATTTCTTG) | 1.73
ATCCAAGCATGGACCGGTTTTCCCGGTAATCCGTATTTGAC (site ATCCAAGCTAT) | 0.937
ATCCAAGCATGGACCGGTTTTCCCGGTAATCCGTATTTGAC (site ATCCAAGCTCT) | 0.0101
ATCCAAGCATGGACCGGTTTTCCCGGTAATCCGTATTTGAC (site ATCCAAGCTGT) | 1.73
ATCCAAGCATGGACCGGTTTTCCCGGTAATCCGTATTTGAC (site ATCCAAGCTTT) | 0.767
ATCCAAGCATGGACCGGTTTTCCCGGTAATCCGTATTTGAG (site AACCAAGCTCT) | 0.0115
ATCCAAGCATGGACCGGTTTTCCCGGTAATCCGTATTTGAG (site ACCCAAGCTCT) | 0.646
ATCCAAGCATGGACCGGTTTTCCCGGTAATCCGTATTTGAG (site AGCCAAGCTCT) | 0.194
ATCCAAGCATGGACCGGTTTTCCCGGTAATCCGTATTTGAG (site ATACAAGCTCT) | 0.0267
ATCCAAGCATGGACCGGTTTTCCCGGTAATCCGTATTTGAG (site ATCAAAGCTCT) | 0.429

Sequence | recombinant UMI read abundance (log10)
ATCCAAGCATGGACCGGTTTTCCCGGTAATCCGTATTTGAG (site ATCCAAACTCT) | 1.09
ATCCAAGCATGGACCGGTTTTCCCGGTAATCCGTATTTGAG (site ATCCAACCTCT) | 0.00996
ATCCAAGCATGGACCGGTTTTCCCGGTAATCCGTATTTGAG (site ATCCAAGCTAT) | 1.64
ATCCAAGCATGGACCGGTTTTCCCGGTAATCCGTATTTGAG (site ATCCAAGCTCA) | 0.209
ATCCAAGCATGGACCGGTTTTCCCGGTAATCCGTATTTGAG (site ATCCAAGCTCC) | 0.0127
ATCCAAGCATGGACCGGTTTTCCCGGTAATCCGTATTTGAG (site ATCCAAGCTCG) | 0.141
ATCCAAGCATGGACCGGTTTTCCCGGTAATCCGTATTTGAG (site ATCCAAGCTCT) | 0.799
ATCCAAGCATGGACCGGTTTTCCCGGTAATCCGTATTTGAG (site ATCCAAGCTGT) | 0
ATCCAAGCATGGACCGGTTTTCCCGGTAATCCGTATTTGAG (site ATCCAAGCTTT) | 0.757
ATCCAAGCATGGACCGGTTTTCCCGGTAATCCGTATTTGAG (site ATCCAATCTCT) | 0.773
ATCCAAGCATGGACCGGTTTTCCCGGTAATCCGTATTTGAG (site ATCCACGCTCT) | 0.0466
ATCCAAGCATGGACCGGTTTTCCCGGTAATCCGTATTTGAG (site ATCCAGGCTCT) | 0.356
ATCCAAGCATGGACCGGTTTTCCCGGTAATCCGTATTTGAG (site ATCCATGCTCT) | 0.0106
ATCCAAGCATGGACCGGTTTTCCCGGTAATCCGTATTTGAG (site ATCCCAGCTCT) | 0.0104
ATCCAAGCATGGACCGGTTTTCCCGGTAATCCGTATTTGAG (site ATCCGAGCTCT) | 0.00838
ATCCAAGCATGGACCGGTTTTCCCGGTAATCCGTATTTGAG (site ATCCTAGCTCT) | 0.357
ATCCAAGCATGGACCGGTTTTCCCGGTAATCCGTATTTGAG (site ATCGAAGCTCT) | 0.00681
ATCCAAGCATGGACCGGTTTTCCCGGTAATCCGTATTTGAG (site ATCTAAGCTCT) | 0.231
ATCCAAGCATGGACCGGTTTTCCCGGTAATCCGTATTTGAG (site ATGCAAGCTCT) | 0.0198
ATCCAAGCATGGACCGGTTTTCCCGGTAATCCGTATTTGAG (site ATTCAAGCTCT) | 0.0155
ATCCAAGCATGGACCGGTTTTCCCGGTAATCCGTATTTGAG (site CTCCAAGCTCT) | 0.656
ATCCAAGCATGGACCGGTTTTCCCGGTAATCCGTATTTGAG (site GTCCAAGCTCT) | 0.00952
ATCCAAGCATGGACCGGTTTTCCCGGTAATCCGTATTTGAG (site TTCCAAGCTCT) | 1.17
ATCCAAGCATGGACCGGTTTTCCCGGTAATCCGTATTTGAT (site ATCCAAGCTAT) | 1.36
ATCCAAGCATGGACCGGTTTTCCCGGTAATCCGTATTTGAT (site ATCCAAGCTCT) | 0.233

Sequence | recombinant UMI read abundance (log10)
ATCCAAGCATGGACCGGTTTTCCCGGTAATCCGTATTTGAT (site ATCCAAGCTGT) | 1.37
ATCCAAGCATGGACCGGTTTTCCCGGTAATCCGTATTTGAT (site ATCCAAGCTTT) | 0.0123
ATCCAAGCATGGACCGGTTTTCCCGGTAATCCGTATTTGCG (site ATCCAAGCTCA) | 0.0396
ATCCAAGCATGGACCGGTTTTCCCGGTAATCCGTATTTGCG (site ATCCAAGCTCC) | 0.00949
ATCCAAGCATGGACCGGTTTTCCCGGTAATCCGTATTTGCG (site ATCCAAGCTCG) | 0.262
ATCCAAGCATGGACCGGTTTTCCCGGTAATCCGTATTTGCG (site ATCCAAGCTCT) | 0.689
ATCCATGCATGGACCGGTTTTCCCGGTAATCCGTATTTGAG (site ATCCAAGCTCT) | 0.0773
ATCCATGCATGGACCGGTTTTCCCGGTAATCCGTATTTGAG (site ATCCACGCTCT) | 0.0124
ATCCATGCATGGACCGGTTTTCCCGGTAATCCGTATTTGAG (site ATCCAGGCTCT) | 0.0333
ATCCATGCATGGACCGGTTTTCCCGGTAATCCGTATTTGAG (site ATCCATGCTCT) | 1.05
ATCCGCGCATGGACCGGTTTTCCCGGTAATCCGTATTTGCG (site ATCCGCGCTCG) | 0.503
ATCCTAGCATGGACCGGTTTTCCCGGTAATCCGTATTTGTA (site ATCCTAGCTTA) | 1.58
ATCCTATCATGGACCGGTTTTCCCGGTAATCCGTATTTGAG (site ATCCTATCTCT) | 0.448
ATCCTTCCATGGACCGGTTTTCCCGGTAATCCGTATTTGCC (site ATCCTTCCTGG) | 0
ATCGAGACATGGACCGGTTTTCCCGGTAATCCGTATTTGGT (site ATAGAGACTAC) | 1.76
ATCGAGACATGGACCGGTTTTCCCGGTAATCCGTATTTGGT (site ATCGAGACTAC) | 1.01
ATCGAGACATGGACCGGTTTTCCCGGTAATCCGTATTTGGT (site ATGGAGACTAC) | 0.604
ATCGAGACATGGACCGGTTTTCCCGGTAATCCGTATTTGGT (site ATTGAGACTAC) | 0.017
ATCGCGGCATGGACCGGTTTTCCCGGTAATCCGTATTTGTC (site ATCGCGGCTGA) | 2.69
ATCTATACATGGACCGGTTTTCCCGGTAATCCGTATTTGAA (site ATCTATACTAT) | 0.0589
ATCTATACATGGACCGGTTTTCCCGGTAATCCGTATTTGAA (site ATCTATACTCT) | 0.0128
ATCTATACATGGACCGGTTTTCCCGGTAATCCGTATTTGAA (site ATCTATACTGT) | 0
ATCTATACATGGACCGGTTTTCCCGGTAATCCGTATTTGAA (site ATCTATACTTT) | 1.29
ATCTATACATGGACCGGTTTTCCCGGTAATCCGTATTTGAC (site AACTATACTGT) | 0.0062
ATCTATACATGGACCGGTTTTCCCGGTAATCCGTATTTGAC (site ACCTATACTGT) | 0.944
